Assays:
[1] = cited from earlier work
[2] = Test Example 2: influence of buffering substance (DEA) concentration on fluorescence intensity of 4-MU in droplets covered with FC40 over time; type: physicochemical; settings: 4 mM CaCl2, pH 6.5, 50 μM 4-MU
Method: According to the following procedure, the influence of the concentration of a buffering substance of a hydrophilic solvent on detection sensitivity was studied. 4-MU was dissolved in a concentration of 50 μM in a buffer solution (4 mM CaCl2, pH 6.5) having a DEA concentration adjusted to 25 mM to 1M. Into the array, 30 μL of the buffer solution in which 4-MU was dissolved was introduced, to fill each of the wells with the buffer solution (see FIG. 1A). Then, into the array, 200 μL of a hydrophobic solvent (FC40) was introduced, to form a droplet of the hydrophilic solvent covered with the hydrophobic solvent in each of the wells. Time-lapse photographing was performed under a fluorescence microscope to measure fluorescence intensity of each of the droplets.

[3] = Test Example 1: influence of pH value of hydrophilic solvent on fluorescence detection of 4-MU in droplets covered with FC40; type: physicochemical; settings: 50 μM 4-MU, 33 mM DEA-HCl, 4 mM CaCl2; buffer pH set higher than pKa (pH 8 or more) within pH 6.5 to 9.0; FC40 cover
Excerpt: According to the following procedure, the influence of the pH value of a hydrophilic solvent on detection sensitivity was studied.
First, according to a report by Kim et al. (“Quantifying genetically inserted fluorescent protein in single iPS cells to monitor Nanog expression using electroactive microchamber arrays”, Lab on Chip, 2014, Issue 4, Vol. 14, and p. 730-736), a droplet array device (DAD) was produced. A cover glass (24 mm×32 mm) was washed and dried. The cover glass was then spin-coated with an amorphous fluorine resin (CYTOP 816AP, AGC Inc.), and fired at 180° C. for 1 hour. The cover glass coated with the amorphous fluorine resin was spin-coated with a positive type photoresist (AZ-4903, AZ Electronic Materials), fired at 55° C. for 3 minutes, and then further fired at 110° C. for 5 minutes. The cover glass was subjected to photolithography by use of a photomask having holes each having a diameter of 3 μm at intervals of 5 μm. The cover glass was dry-etched with oxygen plasma, and then washed to obtain as the DAD. […]
With a CMOS camera (Neo sCMOS, Andor) connected to a fluorescence microscope (IX8, OLYMPUS), a fluorescent image of each of the droplets was photographed to measure fluorescence intensity. […] The fluorescent image was analyzed with an imaging analysis software (Meta-Morph, Molecular Devices), to calculate fluorescence intensity.

Row | Molecule | acid dissociation constant (pKa) [1] | fluorescence intensity over time ([2]; DEA 25 mM) | fluorescence intensity over time ([2]; DEA 50 mM, for 10 minutes) | decrease in the fluorescence intensity over time ([2]; DEA 100 mM, for 30 minutes) | decrease in the fluorescence intensity over time ([2]; DEA 500 mM, for 30 minutes) | decrease in the fluorescence intensity over time ([2]; DEA 1 M, after subtraction of fading due to exposure) | fluorescence detection sensitivity in droplet (distribution/leakage to FC40) [3]
1 | O=c1ccc2nc3ccc(O)cc3oc-2c1 [resorufin] | 6.0 |  |  |  |  |  | 
2 | fluorescein | 6.4 |  |  |  |  |  | 
3 | CCN(CC)c1ccc2c(-c3ccccc3C(=O)O)c3ccc(=[N+](CC)CC)cc-3oc2c1.[Cl-] [rhodamine] | 6.0 |  |  |  |  |  | 
4 | Cc1cc(=O)oc2cc(O)ccc12 [4MU, 4-methylumbelliferone] | 7.79 | decrease in the fluorescence intensity was observed | maintained | significantly suppressed | significantly suppressed | not observed | detected with higher sensitivity

Source: US11008603B2, “Method and kit for detecting pathogenic microorganism” (JAPAN SCIENCE AND TECHNOLOGY AGENCY, priority 2016, dated 2021)
